From article PMC10281321, “Discovery of an effective anti-inflammatory agent for inhibiting the activation of NF-κB” (Journal of Enzyme Inhibition and Medicinal Chemistry, 2023)

Assays:
Type in all cases: cell-based
[1] = system: LPS-stimulated RAW264.7 cells; assay: NO release inhibition in LPS-stimulated RAW264.7 cells (Griess reagent); settings: for IC50: Mus musculus, LPS-stimulated RAW264.7 cells, Griess Reagent; for anti-inflammatory activity (in words): SAR summary covering NO release and NF-κB reporter inhibition
Procedure: After incubated for 24 hours, cells were treated with tested compounds for different
concentrations(3.125,6.25,12.5,25 and 50μM) for 1 h, and then treated with 1 μg/mL LPS
for further 24 h. The supernatants were collected and NO level was measured using
Griess reagent (Beyotime, China). […]

[2] = system: NF-κB; assay: NF-κB transcriptional activity dual-luciferase reporter assay, TNF-α stimulated; settings: Homo sapiens, HEK-293T, HEK293T cells transfected with NF-κB reporter plasmid, stimulated by TNF-α
Procedure: 4.5. NF-κB transcriptional activity assay
HEK293T cells were seeded into 96 well plate at a density of 1×10^5 cells per well. After incubated for 24 hours, cells were transfected with NF-κB reporter plasmid at 100 ng/well using lip2000.Six hours later, the medium was replaced by fresh medium containing tested compounds with different concentrations. Then incubated for another hour, TNF-α was added for a final concentration at 10 ng/mL.12 hours later, the cell lysate was collected and the RLU was measured by microplate reader. […]

[3] = Cytotoxicity by MTT assay

For `Cc1ccc(S(=O)(=O)/C=C/C#N)cc1` [Bay11-7082, reference compound], the IC50 [1] was 2.1 ± 0.7 µM, the IC50 [2] was 0.0915 ± 0.0103 µM and the IC50 [3] was 22.7 ± 3.4 µM.
Work on `CCc1ccc(-c2cnc(N)c(C(=O)Nc3ccccc3)c2)cc1` [Compound 6] yielded an IC50 [1] of 19.7 ± 2.6 µM, an IC50 [2] of 1.62 ± 0.0132 µM and an IC50 [3] of over 25 µM.
Work on `CCc1ccc(-c2cnc(N)c(C(=O)Nc3ccc(C)cc3)c2)cc1` [Compound 7] yielded an IC50 [1] of 26.7 ± 3.2 µM, an IC50 [2] of over 2 µM and an IC50 [3] of over 25 µM.
`CCc1ccc(-c2cnc(N)c(C(=O)Nc3cccc(C)c3)c2)cc1` [Compound 8] gave an IC50 [1] of 15.2 ± 2.8 µM, an IC50 [2] of 1.329 ± 0.0115 µM and an IC50 [3] of over 25 µM.
`CCc1ccc(-c2cnc(N)c(C(=O)Nc3ccccc3C)c2)cc1` [Compound 9] showed an IC50 [1] of 30.2 ± 4 µM, an IC50 [2] of over 2 µM and an IC50 [3] of over 25 µM.
In the case of `CCc1ccc(-c2cnc(N)c(C(=O)Nc3ccc(N)cc3)c2)cc1` [Compound 10], the IC50 [1] is reported as 2.3 ± 0.9 µM, the IC50 [2] is reported as 0.42 ± 0.0104 µM and the IC50 [3] is reported as 7.3 ± 1.2 µM.
`CCc1ccc(-c2cnc(N)c(C(=O)Nc3cccc(N)c3)c2)cc1` [Compound 11] gave an IC50 [1] of 1.7 ± 0.9 µM, an IC50 [2] of 0.0958 ± 0.0062 µM and an IC50 [3] of over 25 µM.
For `CCc1ccc(-c2cnc(N)c(C(=O)Nc3ccccc3N)c2)cc1` [Compound 12], the IC50 [1] was 0.9 ± 0.5 µM, the IC50 [2] was 0.571 ± 0.0093 µM and the IC50 [3] was 4.7 ± 1 µM.
`CCc1ccc(-c2cnc(N)c(C(=O)Nc3ccc(NC(C)=O)cc3)c2)cc1` [Compound 13] gave an IC50 [1] of 10.2 ± 5.4 µM, an IC50 [2] of 0.7139 ± 0.0042 µM and an IC50 [3] of over 25 µM. For the same compound, the “cytotoxicity (in words)” value [3] was “cytotoxicity is reduced”.
In the case of `CCc1ccc(-c2cnc(N)c(C(=O)Nc3cccc(NC(C)=O)c3)c2)cc1` [Compound 14], the IC50 [1] is reported as 3.2 ± 1.1 µM, the “anti-inflammatory activity (in words)” value [1] is reported as “strong anti-inflammatory activity” and the IC50 [2] is reported as 0.167 ± 0.0084 µM. For the same compound, the IC50 [3] was over 25 µM.
In the case of `CCc1ccc(-c2cnc(N)c(C(=O)Nc3ccccc3NC(C)=O)c2)cc1` [Compound 15], the IC50 [1] is reported as 1.1 ± 0.4 µM, the “anti-inflammatory activity (in words)” value [1] is reported as “strong anti-inflammatory activity” and the IC50 [2] is reported as 0.532 ± 0.0135 µM. For the same compound, the IC50 [3] was 3.2 ± 0.8 µM.
Compound `CCc1ccc(-c2cnc(N)c(C(=O)Nc3ccc(F)cc3)c2)cc1` [Compound 16] has an IC50 [1] of over 50 µM, an IC50 [2] of over 2 µM and an IC50 [3] of over 25 µM.
For `CCc1ccc(-c2cnc(N)c(C(=O)Nc3ccc(Cl)cc3)c2)cc1` [Compound 17], the IC50 [1] was over 50 µM, the IC50 [2] was over 2 µM and the IC50 [3] was over 25 µM.
With `CCc1ccc(-c2cnc(N)c(C(=O)Nc3ccc(OC(F)(F)F)cc3)c2)cc1` [Compound 18] the IC50 [1] was over 50 µM, the “anti-inflammatory activity (in words)” value [1] was “loss of anti-inflammatory activity” and the IC50 [2] was over 2 µM. It also gave an IC50 [3] of over 25 µM.
With `CCc1ccc(NC(=O)c2cc(-c3ccc(CC)cc3)cnc2N)cc1` [Compound 19] the IC50 [1] was 28.5 ± 2.1 µM, the IC50 [2] was over 2 µM and the IC50 [3] was over 25 µM.
`CCc1ccc(-c2cnc(N)c(C(=O)Nc3ccc(OC)cc3)c2)cc1` [Compound 20] showed an IC50 [1] of 22 ± 0.8 µM, an IC50 [2] of over 2 µM and an IC50 [3] of over 25 µM.
`CCc1ccc(-c2cnc(N)c(C(=O)Nc3ccc(C(C)C)cc3)c2)cc1` [Compound 21] gave an IC50 [1] of over 50 µM, an IC50 [2] of over 2 µM and an IC50 [3] of over 25 µM.
With `CCc1ccc(-c2cnc(N)c(C(=O)Nc3ccc(C(N)=O)cc3)c2)cc1` [Compound 22] the IC50 [1] was over 50 µM, the “anti-inflammatory activity (in words)” value [1] was “loss of anti-inflammatory activity” and the IC50 [2] was over 2 µM. For the same compound, the IC50 [3] was over 25 µM.
`CCc1ccc(-c2cccc(C(=O)Nc3ccc(NC(C)=O)cc3)c2)cc1` [Compound 23] gave an IC50 [1] of 32.7 ± 3.4 µM, an IC50 [2] of over 2 µM and an IC50 [3] of over 25 µM.
In the case of `CCc1ccc(-c2cc(C(=O)Nc3ccc(NC(C)=O)cc3)ccn2)cc1` [Compound 24], the IC50 [1] is reported as 14.1 ± 1.7 µM, the IC50 [2] is reported as 0.763 ± 0.0151 µM and the IC50 [3] is reported as over 25 µM.
`CCc1ccc(-c2cncc(C(=O)Nc3ccc(NC(C)=O)cc3)c2)cc1` [Compound 25] showed an IC50 [1] of 25.4 ± 3.1 µM, an IC50 [2] of 1.33 ± 0.0163 µM and an IC50 [3] of over 25 µM.
Work on `CCc1ccc(-c2ccnc(C(=O)Nc3ccc(NC(C)=O)cc3)c2)cc1` [Compound 26] yielded an IC50 [1] of 19.5 ± 3.2 µM, an IC50 [2] of 1.96 ± 0.0535 µM and an IC50 [3] of over 25 µM.
In the case of `CCc1ccc(-c2cc(C(=O)Nc3ccc(NC(C)=O)cc3)cnc2N)cc1` [Compound 27], the IC50 [1] is reported as 21.5 ± 2.6 µM, the IC50 [2] is reported as 1.11 ± 0.0124 µM and the IC50 [3] is reported as over 25 µM.
With `CC(=O)Nc1ccc(NC(=O)c2cc(-c3ccc(C)cc3)cnc2N)cc1` [Compound 28] the IC50 [1] was 24.2 ± 4.1 µM, the “anti-inflammatory activity (in words)” value [1] was “anti-inflammatory activity decreased significantly” and the IC50 [2] was over 2 µM. The IC50 [3] was over 50 µM.
In the case of `CC(=O)Nc1ccc(NC(=O)c2cc(-c3cccc(C)c3)cnc2N)cc1` [Compound 29], the IC50 [1] is reported as over 50 µM, the “anti-inflammatory activity (in words)” value [1] is reported as “anti-inflammatory activity decreased significantly” and the IC50 [2] is reported as over 2 µM. For the same compound, the IC50 [3] was over 50 µM.
For `CC(=O)Nc1ccc(NC(=O)c2cc(-c3ccc(S(C)(=O)=O)cc3)cnc2N)cc1` [Compound 30], the IC50 [1] was 17.8 ± 2.7 µM, the IC50 [2] was 1.04 ± 0.0175 µM and the IC50 [3] was over 50 µM.
Compound `COc1ccc(-c2cnc(N)c(C(=O)Nc3ccc(NC(C)=O)cc3)c2)cc1` [Compound 31] has an IC50 [1] of over 50 µM, an IC50 [2] of over 2 µM and an IC50 [3] of over 50 µM.
For `COc1cccc(-c2cnc(N)c(C(=O)Nc3ccc(NC(C)=O)cc3)c2)c1` [Compound 32], the IC50 [1] was over 50 µM, the IC50 [2] was over 2 µM and the IC50 [3] was over 50 µM.
Work on `COc1ccccc1-c1cnc(N)c(C(=O)Nc2ccc(NC(C)=O)cc2)c1` [Compound 33] yielded an IC50 [1] of over 50 µM, an IC50 [2] of over 2 µM and an IC50 [3] of over 50 µM.
Work on `COc1ccc(-c2cnc(N)c(C(=O)Nc3ccc(NC(C)=O)cc3)c2)c(OC)c1OC` [Compound 34] yielded an IC50 [1] of over 50 µM, an IC50 [2] of over 2 µM and an IC50 [3] of over 50 µM.
For `CC(=O)Nc1ccc(NC(=O)c2cc(-c3ccc(Cl)cc3)cnc2N)cc1` [Compound 35], the IC50 [1] was 4.2 ± 0.8 µM, the “anti-inflammatory activity (in words)” value [1] was “significantly improved the anti-inflammatory activity” and the IC50 [2] was 0.207 ± 0.013 µM. For the same compound, the IC50 [3] was over 50 µM.
With `CC(=O)Nc1ccc(NC(=O)c2cc(-c3cccc(Cl)c3)cnc2N)cc1` [Compound 36] the IC50 [1] was over 50 µM, the IC50 [2] was over 2 µM and the IC50 [3] was over 50 µM.
Work on `CC(=O)Nc1ccc(NC(=O)c2cc(-c3ccccc3Cl)cnc2N)cc1` [Compound 37] yielded an IC50 [1] of over 50 µM, an IC50 [2] of over 2 µM and an IC50 [3] of over 50 µM.
`CC(=O)Nc1ccc(NC(=O)c2cc(-c3ccc(F)cc3)cnc2N)cc1` [Compound 38] gave an IC50 [1] of 13.7 ± 1.8 µM, an IC50 [2] of 0.827 ± 0.0186 µM and an IC50 [3] of over 50 µM.
For `CC(=O)Nc1ccc(NC(=O)c2cc(-c3cccc(F)c3)cnc2N)cc1` [Compound 39], the IC50 [1] was over 50 µM, the IC50 [2] was over 2 µM and the IC50 [3] was over 50 µM.
With `CC(=O)Nc1ccc(NC(=O)c2cc(-c3ccc(C(F)(F)F)cc3)cnc2N)cc1` [Compound 40] the IC50 [1] was 26.5 ± 3 µM, the IC50 [2] was over 2 µM and the IC50 [3] was over 50 µM.
With `CC(=O)Nc1ccc(NC(=O)c2cc(-c3cccc(C(F)(F)F)c3)cnc2N)cc1` [Compound 41] the IC50 [1] was 8.4 ± 1.7 µM, the IC50 [2] was 0.307 ± 0.0214 µM and the IC50 [3] was over 50 µM.
For `CC(=O)Nc1ccc(NC(=O)c2cc(-c3ccccc3C(F)(F)F)cnc2N)cc1` [Compound 42], the IC50 [1] was 14.6 ± 2.3 µM, the IC50 [2] was 1.01 ± 0.0184 µM and the IC50 [3] was over 50 µM.
Work on `CC(=O)Nc1ccc(NC(=O)c2cc(-c3ccc(O)cc3)cnc2N)cc1` [Compound 43] yielded an IC50 [1] of over 50 µM, an IC50 [2] of over 2 µM and an IC50 [3] of over 50 µM.
With `CC(=O)Nc1ccc(NC(=O)c2cc(-c3cccc(O)c3)cnc2N)cc1` [Compound 44] the IC50 [1] was over 50 µM, the IC50 [2] was over 2 µM and the IC50 [3] was over 50 µM.
In the case of `CC(=O)Nc1ccc(NC(=O)c2cc(-c3ccccc3O)cnc2N)cc1` [Compound 45], the IC50 [1] is reported as over 50 µM, the IC50 [2] is reported as over 2 µM and the IC50 [3] is reported as over 50 µM.
`CC(=O)Nc1ccc(NC(=O)c2cc(-c3ccc(C#N)cc3)cnc2N)cc1` [Compound 46] gave an IC50 [1] of over 50 µM, an IC50 [2] of over 2 µM and an IC50 [3] of over 50 µM.
In the case of `CC(=O)Nc1ccc(NC(=O)c2cc(-c3cccc(C#N)c3)cnc2N)cc1` [Compound 47], the IC50 [1] is reported as 28.9 ± 2.1 µM, the IC50 [2] is reported as over 2 µM and the IC50 [3] is reported as over 50 µM.
In the case of `CC(=O)Nc1ccc(NC(=O)c2cc(-c3ccccc3C#N)cnc2N)cc1` [Compound 48], the IC50 [1] is reported as over 50 µM, the IC50 [2] is reported as over 2 µM and the IC50 [3] is reported as over 50 µM.
In the case of `CC(=O)Nc1ccc(NC(=O)c2cc(-c3ccc(C=O)c(C)c3)cnc2N)cc1` [Compound 49], the IC50 [1] is reported as over 50 µM, the IC50 [2] is reported as over 2 µM and the IC50 [3] is reported as over 50 µM.
With `CC(=O)Nc1ccc(NC(=O)c2cc(-c3ccc(F)c(C)c3)cnc2N)cc1` [Compound 50] the IC50 [1] was 8.6 ± 1.9 µM, the “anti-inflammatory activity (in words)” value [1] was “superior anti-inflammatory activity” and the IC50 [2] was 0.577 ± 0.0216 µM. The IC50 [3] was over 50 µM.
In the case of `COc1ccc(-c2cnc(N)c(C(=O)Nc3ccc(NC(C)=O)cc3)c2)c(F)c1` [Compound 52], the IC50 [1] is reported as over 50 µM, the IC50 [2] is reported as 1.42 ± 0.0247 µM and the IC50 [3] is reported as over 50 µM.
